Where two headings read alike, the source gives them in different places.
How the values were obtained:
Kir6.2+SUR1 = target: T1, Kir6.2+SUR1 (Homo sapiens, UniProt Q14654); assay: Nucleotide inhibition of KATP currents in inside-out patches from HEK293T cells, Hill fit; assay type: biochemical
T1 construct: expressed in transfected cells; host or cells: HEK293T
Experimental: (§1) Human Kir6.2 and SUR1 were subcloned into pCGFP_EU [green fluorescent proten (GFP)‐tagged constructs] and pcDNA4/TO, respectively. Site‐directed mutagenesis and amber stop codons were introduced using the QuikChange XL system (Stratagene, San Diego, CA, USA) and verified by sequencing (DNA Sequencing and Services, Dundee, UK), as previously described (Usher et al., [2020]). HEK293T cells were grown in Dulbecco's modified Eagle's medium (DMEM; Sigma) with the addition of 10% fetal bovine serum, 100 U ml^−1 penicillin and 100 μg ml^−1 streptomycin (Thermo Fisher Scientific; Waltham, MA, USA) at 37°C, 5:95 CO2:air. Cells were seeded in T25 flasks for 24 h, before transfection with TransIT‐LT1 (Mirus Bio LLC, Madison, WI, USA). Protein expression and trafficking to the plasma membrane were optimized by including 300 μM tolbutamide in the transfection media (Yan et al., [2007]). 3‐(6‐Acetylnaphthalen‐2‐ylamino)‐2‐aminopropanoic acid (ANAP)‐tagged Kir6.2 constructs were cultured in the presence of 20 μM ANAP (free acid; AsisChem, Waltham, MA, USA), and 48 h post‐transfection the cells were re‐plated onto either poly‐D‐lysine‐coated glass‐bottomed FluoroDishes (FD35‐PDL‐100; World Precision Instruments) or poly‐L‐lysine‐coated 35 mm Petri dishes (Corning). pCDNA4/TO and pANAP were obtained from Addgene. peRF1‐E55D (Homo sapiens) and pCGFP_EU (Aequorea victoria) were kind gifts from the Chin Laboratory (MRC Laboratory of Molecular Biology, Cambridge, UK) and Gouaux Laboratory (Vollum Institute, Portland, OR, USA), respectively.
(§2) Extracellular (pipette) solutions contained (mM): 140 KCl, 1 EGTA and 10 Hepes (pH adjusted to 7.3 with KOH). The intracellular (bath) solutions contained (mM): 140 KCl, 1 EDTA, 1 EGTA, 10 Hepes (pH adjusted to 7.3 with KOH). Inside‐out patches were excised from transfected HEK293T cells using borosilicate glass pipettes (GC150F‐15; Harvard Apparatus, Holliston, MA, USA) pulled to a resistance of 1–3 MΩ. Data were acquired at a holding potential of −60 mV using an Axopatch 200B amplifier and a Digidata 1322A digitizer run through pClamp 9 software (Molecular Devices, San Jose, CA, USA).

Kir6.2‐K39R+SUR1 [1] = target: T2, Kir6.2‐K39R+SUR1 (Homo sapiens, UniProt Q14654, K39R); assay: as above; assay type: biochemical
T2 construct: expressed in transfected cells; host or cells: HEK293T
T2 sequence (Q14654 whole entry K39R): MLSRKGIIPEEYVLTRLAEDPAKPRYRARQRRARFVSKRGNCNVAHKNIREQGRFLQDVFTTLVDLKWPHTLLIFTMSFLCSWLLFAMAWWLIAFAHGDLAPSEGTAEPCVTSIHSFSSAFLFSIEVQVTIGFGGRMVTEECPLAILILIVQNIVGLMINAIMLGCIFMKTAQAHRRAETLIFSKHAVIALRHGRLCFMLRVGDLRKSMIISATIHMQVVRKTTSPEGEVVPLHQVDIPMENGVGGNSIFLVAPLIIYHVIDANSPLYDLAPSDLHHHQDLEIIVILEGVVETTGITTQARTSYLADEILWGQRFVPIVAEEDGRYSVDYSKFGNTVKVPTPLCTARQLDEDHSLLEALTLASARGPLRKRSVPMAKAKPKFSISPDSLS
T2 sequence (Q09428 whole entry partner): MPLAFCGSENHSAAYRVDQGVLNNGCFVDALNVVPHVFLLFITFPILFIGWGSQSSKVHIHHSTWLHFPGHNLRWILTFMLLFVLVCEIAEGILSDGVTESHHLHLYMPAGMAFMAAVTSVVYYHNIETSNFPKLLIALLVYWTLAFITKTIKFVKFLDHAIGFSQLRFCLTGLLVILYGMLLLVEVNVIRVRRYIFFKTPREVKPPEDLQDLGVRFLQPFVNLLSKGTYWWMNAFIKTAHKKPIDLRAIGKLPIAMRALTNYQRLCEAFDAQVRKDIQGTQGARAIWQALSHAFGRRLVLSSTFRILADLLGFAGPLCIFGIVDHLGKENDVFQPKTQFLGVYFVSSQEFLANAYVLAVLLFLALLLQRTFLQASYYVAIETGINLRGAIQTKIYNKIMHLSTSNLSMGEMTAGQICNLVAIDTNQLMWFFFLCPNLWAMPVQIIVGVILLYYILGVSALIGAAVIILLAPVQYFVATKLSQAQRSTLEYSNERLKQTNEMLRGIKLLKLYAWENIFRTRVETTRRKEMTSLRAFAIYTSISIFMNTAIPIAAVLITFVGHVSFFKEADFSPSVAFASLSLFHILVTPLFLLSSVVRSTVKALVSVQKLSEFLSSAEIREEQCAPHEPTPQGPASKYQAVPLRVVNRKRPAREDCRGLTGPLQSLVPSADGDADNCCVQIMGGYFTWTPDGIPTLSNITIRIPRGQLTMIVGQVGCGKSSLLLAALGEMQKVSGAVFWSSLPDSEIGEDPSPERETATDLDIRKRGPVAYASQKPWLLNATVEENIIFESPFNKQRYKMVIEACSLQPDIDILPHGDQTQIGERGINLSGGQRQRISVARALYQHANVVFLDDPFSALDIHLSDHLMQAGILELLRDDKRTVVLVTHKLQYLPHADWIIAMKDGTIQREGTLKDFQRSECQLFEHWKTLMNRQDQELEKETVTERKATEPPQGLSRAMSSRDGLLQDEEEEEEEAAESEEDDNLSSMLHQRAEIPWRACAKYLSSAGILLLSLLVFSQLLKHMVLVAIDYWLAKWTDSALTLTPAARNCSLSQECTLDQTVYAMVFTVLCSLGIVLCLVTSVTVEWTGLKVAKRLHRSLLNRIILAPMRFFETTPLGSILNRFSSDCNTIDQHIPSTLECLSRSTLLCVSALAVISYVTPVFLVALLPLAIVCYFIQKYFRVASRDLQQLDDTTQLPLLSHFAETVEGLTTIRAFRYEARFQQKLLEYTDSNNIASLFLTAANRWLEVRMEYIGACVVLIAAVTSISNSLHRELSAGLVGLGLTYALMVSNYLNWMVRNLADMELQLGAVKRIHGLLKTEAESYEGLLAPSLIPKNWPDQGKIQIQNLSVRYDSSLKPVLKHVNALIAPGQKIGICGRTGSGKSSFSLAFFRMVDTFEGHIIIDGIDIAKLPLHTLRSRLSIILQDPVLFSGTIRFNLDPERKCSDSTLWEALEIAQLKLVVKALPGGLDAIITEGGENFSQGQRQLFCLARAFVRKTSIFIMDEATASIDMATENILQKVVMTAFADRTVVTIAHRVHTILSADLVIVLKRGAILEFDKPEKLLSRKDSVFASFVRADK
Experimental: as §1, §2

Kir6.2‐K39E+SUR1 = target: T3, Kir6.2‐K39E+SUR1 (Homo sapiens, UniProt Q14654, K39E); assay: as above; assay type: biochemical
T3 construct: expressed in transfected cells; host or cells: HEK293T
T3 sequence (Q14654 whole entry K39E): as the sequence (Q14654 whole entry K39R) above, with R39E counted along it
T3 sequence (Q09428 whole entry partner): as the sequence (Q09428 whole entry partner) above
Experimental: as §1, §2

Kir6.2‐K39A+SUR1 [2] = target: T4, Kir6.2‐K39A+SUR1 (Homo sapiens, UniProt Q14654, K39A); assay: as above; assay type: biochemical
T4 construct: expressed in transfected cells; host or cells: HEK293T
T4 sequence (Q14654 whole entry K39A): as the sequence (Q14654 whole entry K39R) above, with R39A counted along it
T4 sequence (Q09428 whole entry partner): as the sequence (Q09428 whole entry partner) above
Experimental: as §1, §2

Kir6.2‐K39A+SUR1 [3] = target: T4, Kir6.2‐K39A+SUR1; parameters: method as in previous submission of this manuscript; details: construct not specified further, quoted by Referee #4, ref previous submission of this manuscript; cited from earlier work
Kir6.2‐K39R+SUR1 [4] = target: T2, Kir6.2‐K39R+SUR1; parameters: method as in previous submission of this manuscript; details: construct not specified further, quoted by Referee #4, ref previous submission of this manuscript; cited from earlier work

T1 sequence (Q14654 whole entry): as the sequence (Q14654 whole entry K39R) above, with R39K counted along it
T1 sequence (Q09428 whole entry partner): as the sequence (Q09428 whole entry partner) above

## Nc1ncnc2c1ncn2[C@@H]1O[C@H](COP(=O)(O)OP(=O)(O)OP(=O)(O)O)[C@H]2OC3(O[C@H]21)C([N+](=O)[O-])=CC(=[N+]([O-])[O-])C=C3[N+](=O)[O-] (stereo partly drawn) [TNP‐ATP, trinitrophenyl adenosine triphosphate]
Kir6.2+SUR1
  IC50: 1.08 µM
Kir6.2‐K39R+SUR1 [1]
  IC50: 2.48 µM
Kir6.2‐K39E+SUR1
  IC50: 11.8 µM
Kir6.2‐K39A+SUR1 [2]
  IC50: 11 µM
Kir6.2‐K39A+SUR1 [3]
  IC50: 13.2 µM
Kir6.2‐K39R+SUR1 [4]
  IC50: 2.62 µM

From article PMC9825998 (The Journal of Physiology, 2022)
